In one experiment the target is T1, hTLR7 (Homo sapiens, UniProt Q9NYK1).
T1 construct: host or cells: HEK293 (HEK-Blue hTLR7)
T1 sequence (Q9NYK1 27-1049): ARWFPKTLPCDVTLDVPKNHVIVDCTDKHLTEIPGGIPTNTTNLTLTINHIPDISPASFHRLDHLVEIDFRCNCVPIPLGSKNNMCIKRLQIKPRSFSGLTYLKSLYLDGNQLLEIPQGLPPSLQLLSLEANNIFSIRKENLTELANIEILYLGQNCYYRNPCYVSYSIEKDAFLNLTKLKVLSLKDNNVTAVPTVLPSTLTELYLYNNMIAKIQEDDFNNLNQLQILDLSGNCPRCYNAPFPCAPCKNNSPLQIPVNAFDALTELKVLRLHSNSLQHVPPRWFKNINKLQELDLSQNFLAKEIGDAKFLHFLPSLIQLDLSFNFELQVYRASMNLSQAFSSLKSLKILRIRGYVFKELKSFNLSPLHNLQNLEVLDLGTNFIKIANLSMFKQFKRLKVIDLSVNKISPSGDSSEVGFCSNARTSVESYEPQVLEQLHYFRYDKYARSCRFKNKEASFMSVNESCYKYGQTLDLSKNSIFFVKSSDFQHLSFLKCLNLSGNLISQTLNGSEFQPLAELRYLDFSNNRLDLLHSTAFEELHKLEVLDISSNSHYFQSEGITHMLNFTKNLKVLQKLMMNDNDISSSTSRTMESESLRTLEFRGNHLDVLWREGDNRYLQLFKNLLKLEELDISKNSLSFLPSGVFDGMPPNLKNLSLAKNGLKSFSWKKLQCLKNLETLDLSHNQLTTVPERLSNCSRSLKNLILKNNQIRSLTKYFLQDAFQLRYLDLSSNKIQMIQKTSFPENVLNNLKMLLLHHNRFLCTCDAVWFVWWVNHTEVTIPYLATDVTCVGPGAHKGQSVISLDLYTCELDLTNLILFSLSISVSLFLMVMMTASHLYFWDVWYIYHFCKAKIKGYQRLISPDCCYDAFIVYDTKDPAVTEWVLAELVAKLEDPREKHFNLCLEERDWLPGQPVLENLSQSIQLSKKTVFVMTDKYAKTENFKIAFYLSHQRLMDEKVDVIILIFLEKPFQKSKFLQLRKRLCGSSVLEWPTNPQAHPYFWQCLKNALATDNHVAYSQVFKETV
Nature of the experiment: SEAP reporter assay for hTLR-7 activity (HEK-Blue hTLR7 cells). In kind it is cell-based. The procedure:
TLR activation induces NF-κB production and subsequent SEAP secretion, which is measured using HEK-Detection media (InvivoGen) containing a colorimetric substrate for SEAP (UV-Vis, 637 nm).
The experiments followed manufacturer protocol as follows: SEAP levels were measured via absorbance at 637 nm using HEK-Blue Detection cell culture medium (InvivoGen), which contains a SEAP-specific colorimetric substrate. Compound stock solutions were first diluted in sterile DMSO at a concentration of 10 mM. Lower concentrations were prepared by serial dilution of the initial 10 mM stock samples into sterile DMSO and these solutions (22 μL) were subsequently diluted into sterile H2O (198 μL) using a BioTek Precision XS pipetting system. HEK-Blue hTLR7, HEK-Blue hTLR8, Null 1−k, and Null 1 cell suspensions in sterile HEK-Blue Detection medium were prepared at a density of 220,000 cells per mL. Clear bottom, 96-well tissue culture treated plates (Corning) were seeded with hTLR7 and Null 1−k or hTLR8 and Null 1 cell suspensions (180 μL/well), after which 20 μL of the various sample concentrations in 10% v/v DMSO/H2O were added (20 μL) in quadruplicate wells to yield the desired testing concentration in 1% v/v DMSO cell suspension. Plates were incubated at 37° C. and 5% CO2 in the dark. Absorbance measurements were taken at 637 nm at 12 hours, 4 replicates per concentration point, per cell line (hTLR7, hTLR8, Null 1−k, Null 1). Three independent measurements on different days were performed for each analog.
Corresponding well absorbance values for each concentration tested were averaged with respect to days tested, and the average relative NF-κB induction (UV-Vis, 637 nm) of the null cell lines (Null 1-k or Null 1) were subtracted from the respective average TLR expressing cell line (hTLR7 or hTLR8) absorbance averages. […] The three independent, normalized averages for each analog were then pooled, and the data was fit using the Hill-Slope model (GraphPad Prism v7.0) using the non-linear fit from the [Agonist] vs. response—Variable Slope (four parameters) with a hill slope constrained to less than 3.
Background: In a reporter assay the amount or activity of a reporter protein is the signal.

In experiment [1] the test system is canine peripheral blood mononuclear cells (cPBMCs). Put plainly: Cytokine production in canine PBMCs by ELISA (Example 2). In kind it is cell-based. The conditions noted are these: ± SD, 20 μM, 29 hours, ELISA, triplicate. As for the experimental part:
The imidazoquinolines were further screened for cytokine production in canine peripheral blood mononuclear cells (cPBMCs). […] TNFα and IL-12 were chosen as they are typically seen in a Th-1 cytokine response.
Peripheral blood from a healthy canine donor was obtained with appropriate informed consent of the owner and under approved institutional guidelines. Blood (8 mL per tube) was drawn via sterile venipuncture into a BD Vacutainer cell preparation tube containing sodium heparin (BD Biosciences). PBMCs were isolated within one hour following procurement by density gradient centrifugation according to the manufacturer protocol and resuspended to 2.22×10^6 cells/mL in sterile RPMI 1640 medium with L-glutamine (Gibco) supplemented with 100 U/mL penicillin, 100 μg/mL streptomycin (Corning) and 10% (v/v) heat-inactivated Fetalgro (RMBIO). Corning 3917, 96-well tissue culture treated plates were seeded with the PBMC suspension (180 μL/well), 20 μL of the serially diluted TLR agonists were added in triplicate to yield the desired concentrations in a 1% (v/v) DMSO cell suspension. Cells were incubated at 37° C. in 5% CO2 for 9 hours (FIGS. 3A-3D) or 29 hours (Table 2) after which supernatants were removed and frozen at −80° C. Cytokine secretion levels were measured by ELISA (Duoset, R&D Systems) according to the manufacturer protocol. Samples and standards (n=3) were thawed and plated onto a Maxisorp flat-bottom, 384-well plate (Thermo Scientific) using a BioTek Precision XS pipetting system. Cytokine concentrations were determined by a hyperbolic or four-parameter logistic non-linear regression of the recombinant standards and subsequent interpolation using Graphpad Prism 7.0.

Take `CCOCc1nc2c(N)nc3ccccc3c2n1CC(C)(C)O` [Compound 2, resiquimod, reference compound]: the “agonist for TLR7 receptor (in words)” value on hTLR7 was “agonists”. Further, in experiment [1], the “Cytokine IFNg” value was determined as 26 ± 7 pg/mL, the “Cytokine IL-2” value is listed as 120 ± 12 pg/mL, the “Cytokine IL-6” value turned out to be 380 ± 80 pg/mL and the “Cytokine IL-10” value is 21 ± 2 pg/mL. In addition, in experiment [1], the “Cytokine IL-12” value came out at 2800 ± 520 pg/mL and the “Cytokine TNFa” value came out at 190 ± 30 pg/mL.

Values taken from patent publication US12295970B2, “Imidazoquinoline compounds and prodrugs thereof” (UNIVERSITY OF KANSAS, priority 2019, dated 2025).
